Experimental data reported in ChEMBL document CHEMBL1130647, “Synthesis and in vitro cytotoxicity of 3-substituted-1,8-diazaanthraquinones produced by Lewis-acid catalyzed hetero Diels-Alder reaction” (Bioorg Med Chem Lett, 1998).

Tests used:
Type in all cases: functional, cell-based
Settings in all cases: Homo sapiens
SK-OV-3 = test: In vitro cytotoxic activity against SK-OV-3 (ovarian carcinoma) cell lines by using SRB assay
SF-295 = test: In vitro cytotoxic activity against SF-295 (CNS carcinoma) cell lines by using SRB assay
HCT-15 = test: In vitro cytotoxic activity against HCT15 (colon cancer) cell lines by using SRB assay
HOP-62 = test: In vitro cytotoxic activity against HOP62 (lung cancer) cell lines by using SRB assay

SMILES | IC50 (SK-OV-3) | IC50 (SF-295) | IC50 (HCT-15) | IC50 (HOP-62)
O=C1c2cccnc2C(=O)c2ncc(CBr)cc21 | 300 nM | 500 nM | 400 nM | 55 nM
Cc1cnc2c(c1)C(=O)c1cccnc1C2=O | 40 nM | 250 nM | 350 nM | 15 nM
O=C1c2cccnc2C(=O)c2ncc(CO)cc21 | 200 nM | 300 nM | 400 nM | 100 nM
CC(C)NC(=O)OCc1cnc2c(c1)C(=O)c1cccnc1C2=O | 20 nM | 100 nM | 20 nM | 6 nM
COc1cccc2c1C(=O)c1c(O)c3c(c(O)c1C2=O)C[C@@](O)(C(=O)CO)C[C@@H]3O[C@H]1C[C@H](N)[C@H](O)[C@H](C)O1 [DOXORUBICIN] | 20 nM | 35 nM | 100 nM | 4 nM
